Test results published in patent US8444970B2, “Compositions and methods for treating ocular diseases and conditions” (Lpath, Inc., priority 2006, dated 2013).
“And” between values parts separate entries of the source, which are not always exact repeats. Equal values may be shown once.

Tests used:
[1] = test system: peripheral lymphocyte counts; details: single oral dose; cited from earlier work
[2] = test system: human conjunctiva fibroblasts; test: alpha-SMA expression in conjunctiva fibroblasts; type: cell-based; details: 10 uM S1P (only at this concentration)
From the text: (§1) In many of these disorders, circulating growth factors and chemokines promote the transformation of normal ocular cells into fibrocontractile, scar tissue-producing cells that have been termed “myofibroblasts”. Normally, myofibroblasts are responsible for tissue repair as part of the wound healing response following injury. However altered number and function of myofibroblasts are implicated in diseases characterized by pathological scar tissue formation in the liver, skin, lung, kidney, heart and eyes. In the eye, transformation of retinal pigmented epithelial (RPE) cells to a myofibroblast phenotype is linked to formation of fibro-contractile membranes which cause retinal detachment and subsequent vision impairment. In addition, myofibroblast transformation of ocular fibroblasts can result in abnormal scar tissue production after eye injury leading to subsequent vision loss. Although many of the circulating protein factors in the eye that promote myofibroblast formation have been identified, nothing is known regarding the role of lysolipids such as S1P in this process. Therefore, we examined the effects of S1P on myofibroblast transformation of several human ocular cell lines.
(§2) In these experiments, the ability of S1P to promote α-SMA expression differed in a concentration dependent manner between the retinal pigmented epithelial cells and conjunctiva fibroblasts. […]

[3] = test system: endothelial cell (EC) infiltration into Matrigel plugs; test: In vivo Matrigel plug assay, S1P-supplemented plugs, EC infiltration; set-up: species or system mouse; details: plugs containing S1P
Experimental: Based on in vivo studies showing that S1P increased endothelial capillary growth into subcutaneously implanted Matrigel plugs, we speculated that SPHINGOMAB could reduce de novo BV formation in vivo. To investigate this, we employed the in vivo Matrigel Plug assay for neovascularization. In one set of experiments, Matrigel was supplemented with either […], 0.5 μg/mL bFGF or 1 μg/mL VEGF and then injected […]. into mice (n=4). After 10 days, the mice were heparinized and injected with the fluorescent lectin, Isolectin B4-FITC, which binds to adhesion molecules expressed by vascular EC that form the growing BVs. The plugs were then excised, frozen in OCT, sectioned and viewed for FITC-stained BVs.
Sections of the plugs were then stained with hemotoxyln & eosin for evaluation of EC infiltration (FIG. 6B). The infiltration of ECs is a critical step in neo-vascularization. […] Cell infiltration is presumed to be ECs although we recognize that other cell types such as immune cells may also be stained.

[4] = test system: human retinal pigmented epithelial cells; test: alpha-SMA expression in retinal pigmented epithelial cells; type: cell-based
From the text: as §1, §2

[5] = test system: DU145 prostate tumor xenograft; test: SC DU145 prostate tumor xenograft in nude NCr mice; type: in vivo, mouse; details: LT1009 50 mg/kg ip q2d; Avastin 20 mg/kg q4d; Paclitaxel 7.5 mg/kg q1dx5
Experimental: Nude mice were implanted sc near the right flank with one fragment per mouse of DU145 tumor from an in vivo passage. All treatments were initiated the day when 60 mice in each experiment established tumors ranging in size from approximately 100 to 200 mm^3. […] Paclitaxel and Avastin were administered iv and ip at a dosage of 7.5 mg/kg/dose and 20 mg/kg/dose, q1d×5 and q4d, respectively, injected in a volume of 0.1 mL/10 g body weight.
During the course of the study tumor growth was monitored by measuring the sc tumors on three axes and calculating the volume. At the end of the study final tumor weights and volumes were determined and then the mice were sacrificed, the tumors harvested. Microvascular densities (MVD) of the tumors were then determined by CD-31 staining.

[6] = test system: COLO205 colorectal tumor xenograft; test: SC COLO205 colorectal tumor xenograft in nude NCr mice; type: in vivo, mouse; details: LT1009 50 mg/kg ip q3d; Avastin 40 mg/kg iv q7d; Paclitaxel 15 mg/kg iv q1dx5
Experimental: Nude mice were implanted sc near the right flank with one fragment per mouse of COLO 205 tumor from an in vivo passage. All treatments were initiated the day when 60 mice in each experiment established tumors ranging in size from approximately 100 to 200 mm3. […] Avastin was administered iv at a dosage of 40 mg/kg/dose on a q7d schedule, injected in a volume of 0.1 mL/20 g body weight. Paclitaxel (positive control), was administered iv at a dosage of 15 mg/kg/dose on a q1d×5 schedule, injected in a volume of 0.1 mL/10 g body weight.
(§3) Animals were observed daily for mortality. Tumor dimensions and body weights were collected twice weekly starting with the first day of treatment and including the day of study termination. When the median tumor in the vehicle-treated control group in each study reached approximately 4,000 mg, the study was terminated. Tumors from each animal were harvested, wet weights were recorded, tumors were processed for determination of microvascular densities (MVD) by CD-31 staining. Tumor weights (mg) were calculated using the equation for an ellipsoid sphere (l×w^2)/2=mm^3, where l and w refer to the larger and smaller dimensions collected at each measurement and assuming unit density (1 mm3=1 mg).

[7] = test system: HT29 colon tumor xenografts; test: SC HT29 colorectal tumor xenograft in nude NCr mice; type: in vivo, mouse; details: LT1009 50 mg/kg ip q2d; Avastin 20 mg/kg iv q4d; 5-FU 75 mg/kg ip q4d
Experimental: Nude mice were implanted sc near the right flank with one fragment per mouse of HT29 tumor from an in vivo passage. All treatments were initiated the day when 60 mice in each experiment established tumors ranging in size from approximately 100 to 200 mm^3. There were ten mice per treatment group. […] 75 mg/kg 5-FU and 20 mg/kg Avastin were administered ip and iv at a dosage of 75 mg/kg/dose and 20 mg/kg/dose, respectively, q4d, injected in a volume of 0.1 mL/10 g body weight.
as §3, with “recorded, and” for “recorded,”, “MVD” for “microvascular densities (MVD)”, “mm^3=1” for “mm3=1”

For `CCCCCCCCc1ccc(CCC(N)(CO)CO)cc1` [FTY720], the “reduction of peripheral lymphocyte counts” value [1] is listed as 30-70%.

In the case of `CCCCCCCCCCCCC/C=C/[C@@H](O)[C@@H](N)COP(=O)(O)O` [S1P, sphingosine-1-phosphate], the alpha-SMA expression [2] is reported as “significant increase”, the “increase of EC infiltration vs Matrigel only plugs” value [3] is reported as 3 fold and the alpha-SMA expression ([4]; 0.001 uM S1P) is reported as “significant increase”. The alpha-SMA expression ([4]; 10 uM S1P) was “decreased to basal levels”.

For “Avastin: anti-angiogenic drug, bevacizumab (Avastin, Genentech)”, the “% Reduction compared to Vehicle-Treated Mice” value (“% Reduction” below) [5] was 80% and 79%, the “% Reduction” value [6] was 35% and the “% Reduction” value [7] was 30%.
